According to PubChem BioAssay (NCI):
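Five compound concentrations were applied to cells in 96-well plates for 48 hours; endpoints were derived by simple linear interpolation of the resulting dose-response curve. TGI is the concentration that stops growth completely.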

How the values were obtained:
Experiment in all cases: NCI-60 cell line screen, 48 h
[1] = tested on: MDA-MB-435
[2] = tested on: LOX IMVI melanoma
[3] = tested on: BT-549 breast
[4] = tested on: TK-10 renal
[5] = tested on: MALME-3M melanoma
[6] = tested on: SN12C renal
[7] = tested on: UACC-257 melanoma
[8] = tested on: UO-31 renal
[9] = tested on: SF-268 CNS
[10] = tested on: SK-MEL-2 melanoma

SMILES	TGI [1] [µM]	TGI [2] [µM]	TGI [3] [µM]	TGI [4] [µM]	TGI [5] [µM]	TGI [6] [µM]	TGI [7] [µM]	TGI [8] [µM]	TGI [9] [µM]	TGI [10] [µM]
NC(Cc1[nH]nc2ccccc12)C(=O)O (stereo not given)	> 100	> 100	> 100	> 100	> 100	> 100	> 100	> 100	> 100	> 100
Cc1cc(S(=O)(=O)Nc2n[nH]c(Nc3ccccc3)n2)c(SCC(=O)O)cc1Cl	> 100	> 100	> 100	> 100	> 100	> 100	> 100	> 100	> 100	> 100
CCOc1ccc(N=Nc2ccc3cc(/C(C)=N/NC(=O)/C(C#N)=C\c4ccc(N(CCC#N)CCC#N)cc4)c(=O)oc3c2)cc1	> 10	> 10	> 10	> 10	> 10	> 10	> 10	> 10	> 10	> 10
Cn1c2c(c3ccccc31)CCN1C(=O)C34CCCC3CC21S4 (stereo not given)	> 100	> 100	> 100	> 100	> 100	> 100	> 100	> 100	> 100	> 100
O=C(OC12CC3CC(CC(C3)C1)C2)c1ccc(NCc2cc(O)ccc2O)cc1	4.45	8.94	1.71	1.96	1.67	9.22	2.98	2.06	5.69	3.57
CCC(=O)Nc1ccc(NS(=O)(=O)c2ccc(Cl)cc2)cc1	> 100	> 100	> 100		> 100	> 100	> 100	> 100	> 100	> 100
N#Cc1nc(CCCN2C(=O)c3ccccc3C2=O)oc1N	> 100	> 100	> 100	> 100	> 100	> 100	> 100	> 100	> 100	> 100
CC(=O)OCC(=O)O[C@@H]1[C@H]2[C@@H](OC(=O)c3ccccc3)[C@@H](C)C[C@]2(O)[C@H](OC(C)=O)[C@@]2(C)C[C@]1(OC(C)=O)C[C@H]1C(=O)C(C)(C)[C@@H](OC(C)=O)[C@@H]12	> 25	> 25	> 25	> 25	> 25	> 25	> 25	> 6.83	> 25	> 25
C=C1C[C@@H]2CC[C@@]34C[C@H]5O[C@H]6[C@@H](O3)[C@H]3O[C@H](CC[C@@H]3O[C@H]6[C@H]5O4)CC(=O)C[C@@H]3[C@@H](OC)[C@@H](C[C@H](O)CN)O[C@H]3C[C@H]3O[C@@H](CC[C@@H]1O2)C[C@@H](C)C3=C	0.000274	> 0.533	> 1	> 1	> 1	> 1	> 1	> 1	> 1	> 0.167
C=C(C)[C@H]1CC(=O)/C(C)=C\CC/C(C)=C/CC[C@@]2(C)O[C@@H]2C1	35	32.2	> 100	76.5	88.7	42.7	> 100	48.4	61.2	> 100
CCCCN1C(=O)CC2[C@@H]3CCc4cc(OC)ccc4C3CC[C@]2(C)C1=O (stereo not given in full)	> 10	> 10	> 10	> 10	> 10	> 10	> 10	> 10	> 10	> 10
COc1cc2c3c(cc(Cl)nc3c1OC)C(=O)C(=O)N2	3.37	25.9	29.8	33.4	3.82	21	21.9	26.7	31.6	27.6
CCOC(=O)/C=C(/C=C\COC1CCCCO1)c1ccccc1 (stereo not given)	> 100	30.9	> 100	> 100	> 100	49.5	> 100	> 100	> 100	> 100
COC(=O)C1=C(C)NC(C)=C(C(=O)OC)C1c1cccc(N=O)c1	29.7	31.6	31	28.2	28.8	33.3	30.2	21	30.8	30.9
COc1cc(OC)cc(Oc2nc3cc(F)c(F)cc3nc2-c2ccccc2)c1	> 100	> 100	> 100	> 100	> 100	> 100	> 100	> 100	> 100	> 100
O=C1CC(c2ccccc2Cl)C2(C(=O)NC(=O)NC2=O)C(c2ccccc2Cl)C1 (stereo not given)	> 100	> 100	> 100	> 100	72.4	> 100	> 100	> 100	> 100	> 100
COc1ccc(OC/C(N=Cc2ccncc2)=N/NC(=O)c2ccncc2)cc1	62.4	> 100	> 100	> 100	> 100	> 100	> 100		> 100	> 100
CC1CCc2sc3nc4n(c(=O)c3c2C1)CC(C)S4 (stereo not given)	> 100	39.8	> 100	98.7	65.8	53.7	50.9	7.51	> 100	41.1
Cc1cc(OCc2nnc3sc(NC(=O)c4ccccc4)nn23)ccc1Cl	50.2	78.7	> 100	> 100	42.2	> 100	> 100	35.2	> 100	80.5
O=C(O)C1=NN(c2ccc(S(=O)(=O)O)cc2)C2(C1)C(Cl)C(=O)N2c1nc2ccccc2s1 (stereo not given)	32.6	12.7	33	33.2	38.7	43.7	37.2	22.9	39.8	32

SMILES	TGI [1] [µM]	TGI [2] [µM]	TGI [3] [µM]	TGI [4] [µM]	TGI [5] [µM]	TGI [6] [µM]	TGI [7] [µM]	TGI [8] [µM]	TGI [9] [µM]	TGI [10] [µM]
C[n+]1c(-c2ccc(NC(=O)c3ccc(C(=O)Nc4ccc(-c5cn6ccccc6[n+]5C)cc4)cc3)cc2)cn2ccccc21	> 100	> 100	> 100	> 100	> 100	> 100	> 100	> 100	> 100	> 100
C=C1CC(COc2ccc3c(C)c(C)c(=O)oc3c2C)(c2ccccc2)OC1=O (stereo not given)	7.96	2.85	3.17	3.03	4.16	11.3	2.14	7	7.96	3.91
O=C1CS/C(=N/N=C/c2cn(Cc3ccc(Cl)cc3Cl)c3ccccc23)N1	> 100	> 100	> 100	> 100	> 100	70.9	> 100	> 100	> 100	74.7
Clc1ccc(OCc2nnc(COc3ccc(OCc4nnc(COc5ccc(Cl)cc5Cl)o4)c(Cl)c3)o2)c(Cl)c1	> 100	33.4	> 100	> 100	> 100	> 100	> 100	36.7	64.3	> 100
O=C(Sc1c(-c2ccccc2)c(=O)n(-c2ccccc2)c(=S)n1-c1ccccc1)c1ccco1	> 100	> 100	> 100	> 100	> 100	> 100	> 31.6	> 100	> 100	> 100
CCOc1ccc(NCC2CC/C(=C\C=C\c3ccccc3)C2=O)cc1 (stereo not given)	30.4	23.5	33	> 50.7	57.8	35.4	38.4	66.2	24.2	> 100
NC(N)=NS(=O)(=O)c1ccc(NC(=O)c2cccc3c(NNc4ccc(S(N)(=O)=O)cc4)c4ccccc4nc23)cc1	> 100	36.5	> 100	> 100	88.8	> 100	> 100	> 100	> 100	> 100
NCCCCNCCCNC(=O)CNC(=O)CC(O)C(N)CCCC(NC(=O)C(CN)NC(=O)C(O)CNC(=O)CC(N)c1ccc(O)cc1)C(=O)O (stereo not given)	> 10	> 10	> 10	> 10	> 10	> 10	> 10	> 10	> 10	> 10
S=c1[nH]nc(Cn2c3ccc(Br)cc3c3nc4ccccc4nc32)n1C1CCCCC1	> 100	23	> 83	> 95.1	72.7	> 56.6	> 100	> 76.2	> 100	54.6
N#Cc1nc(C2CCC(=O)O2)oc1N (stereo not given)	> 100	> 100	> 100	> 100	> 100	> 100	> 100	> 100	> 100	> 100
CC(C)(C)c1cc(/C=C2/NC(=O)NC2=O)cc(C(C)(C)C)c1O	33.4	32.9	27.3	30.2	34.6	31.4	29.9		28.8	27.2
C[N+]1(CCN=C=NC2CCCCC2)CCOCC1	> 100	> 100	> 100	> 100	> 100	> 100	> 100	> 100	> 100	> 100
CCCCCCCCCCCCNC(=O)CCC(NC(=O)c1ccc(N(C)Cc2cnc3nc(N)nc(N)c3n2)cc1)C(=O)NCCCCCCCCCCCC (stereo not given)	> 100	30.7	> 100	> 100	> 100	> 100	> 100	> 100	> 100	> 100
O=P1(C(O)/C=C/c2ccccc2)N(Cc2ccccc2)[C@@H]2CCCC[C@H]2N1Cc1ccccc1 (stereo not given in full)	15.1	13.7	34.2	28.5	8.45	11.6	16.2	17.7	14.2	6.17
O=P(OCc1ccccc1)(OCc1ccccc1)C(O)/C=C/c1ccccc1 (stereo not given)	35.1	31.5	71.2		38.2	39	38.6	80.3	42.8	43.8
Cn1nc2c(c1N)Cc1c(nn(C)c1N)-c1ccccc1-2	> 100	> 100	> 100	> 100	> 100	> 100	> 100	> 100	> 100	> 100
CC1(C)OC[C@@H](C[C@H](O)COCc2ccccc2)O1	> 100	> 100	> 100	> 100	> 100	> 100	> 100	> 100	> 100	> 100
COc1cccc(N2C(=O)CS(=O)(=O)C2c2cccc(Oc3ccccc3)c2)c1 (stereo not given)	> 100	51.1	61.4	47.4	69.8	38.2	44.1	> 100	> 100	38.8
COc1cc2[nH]c(=O)c3cc(-c4ccccc4)cc4c(Cl)nc(c1OC)c2c43	8.84	> 73.6	> 67	> 70	17.1	> 100	21.6	> 65.1	> 55.9	38.7
CCCCCCCCCCCCOCCOCCOCCOCCOCCOCC(=O)NC(Cc1ccccc1)C(=O)Oc1ccc([N+](=O)[O-])cc1 (stereo not given)	> 100	> 100	> 100	> 100	> 100		> 100	> 100	> 100	47.9
